US20260216138A1, “IDENTIFICATION OF OTUD7B INHIBITOR 7BI AND ITS APPLICATION IN REDUCING GROWTH OF NSCLC AND LEUKEMIA CELLS” (The University of North Carolina at Chapel Hill, priority 2023, published 2026)

Columns and labels:
Type in all cases: cell-based
[1] = system: OTUD7B; assay: OTUD7B protein levels by immunoblot; conditions: 16 hrs
Procedure: (§1) Cells were harvested and lysed in EBC buffer (50 mM Tris pH 7.5, 120 mM NaCl, 0.5% NP-40) supplemented with protease inhibitor cocktail (EDTA-free, mini-tablet) (Bimake) and phosphatase inhibitor cocktail (Bimake) by rotating in the cold room for 10 min followed by high-speed centrifugation at 4° C. The protein concentrations in supernatants of whole cell lysates were measured by NanoDrop OneC using the Bio-Rad Bradford protein assay reagent. Equal amounts of whole cell lysates were resolved on SDS-PAGE and immunoblotted with indicated antibodies. For immunoprecipitation analysis, 1 mg of total cell lysate was incubated with the indicated beads for 3-4 hr at 4° C. The recovered immuno-complexes were washed thoroughly three times with NETN buffer (20 mM Tris, pH 8.0, 100 mM NaCl, 1 mM EDTA and 0.5% NP-40) before being resuspended in SDS sample buffer and resolved on SDS-PAGE and immunoblotted with indicated antibodies.

[2] = system: NSCLC cells; assay: NSCLC cell growth; conditions: read-out: IC50 values to suppress NSCLC cell growth
Procedure: 500 cells from OTUD7B depleted A549 cells were seeded into each well of 6-well plates and cultured in the 37° C. incubator with 5% CO2 for 10-15 days until formation of visible colonies. Triplicates were performed. To test the effect of a given inhibitor on colony formation ability, 800 cells from A549, H520 and H1299 cell lines were seeded into each well of 6-well plates, respectively. Each inhibitor was added at indicated concentration the next day. Colonies were counted after 10 days of treatment. The colony staining method was as described. […] Colony numbers were counted manually. […]
2,000 cells from indicated NSLC cell lines were seeded into each well of 96-well plates. Cell viability was measured 3 days post-treatment using MTT assays following manufacturer's instruction. […] Inhibitor was added the next day at indicated concentration and cell viability was measured after 3-day treatment. For cell proliferation assays in THP1, K562 and HL60 cell lines, 1×10^6 cells from each indicated cell line were seeded in 12.5 cm2 cell culture flask and cells were counted by hemocytometer under microscope at indicated time to monitor cell proliferation. […] Inhibitor was added the next day at indicated concentrations and cell number was counted after 3 days treatment. […]

[3] = system: Akt-pS473; assay: Akt-pS473 immunoblot in HEK293 cells
Procedure: Cells were harvested and lysed in EBC buffer (50 mM Tris pH 7.5, 120 mM NaCl, 0.5% NP-40) supplemented with protease inhibitor cocktail (EDTA-free, mini-tablet) (Bimake) and phosphatase inhibitor cocktail (Bimake) by rotating in the cold room for 10 min followed by high-speed centrifugation at 4° C. The protein concentrations in supernatants of whole cell lysates were measured by NanoDrop OneC using the Bio-Rad Bradford protein assay reagent. Equal amounts of whole cell lysates were resolved on SDS-PAGE and immunoblotted with indicated antibodies. For immunoprecipitation analysis, 1 mg of total cell lysate was incubated with the indicated beads for 3-4 hr at 4° C. The recovered immuno-complexes were washed thoroughly three times with NETN buffer (20 mM Tris, pH 8.0, 100 mM NaCl, 1 mM EDTA and 0.5% NP-40) before being resuspended in SDS sample buffer and resolved on SDS-PAGE and immunoblotted with indicated antibodies. […]

[4] = system: GβL binding with mTORC2 components (Sin1, Rictor, mTOR); assay: GβL binding with mTORC2 components (HA-IP, HEK293 cells); conditions: indicated doses of 7Bi, 16 hrs
Procedure: as §1

[5] = system: Akt-pS473; assay: Akt-pS473 western blotting in NSCLC cells (A549, H358, H520, H1299)
Procedure: as §1
Next, we used two approaches to search for possible OTUD7B inhibitors by monitoring Akt-pS473 changes including Akt-pS473 ELISA and western blotting in A549 cells treated with each of these 59 small molecules for 16 hrs at a concentration of 10 uM (FIG. 1A). In Akt-pS473 ELISA assays using Torin 2 (a pan-mTOR inhibitor) as a positive control and DMSO as a negative control (FIG. 1E), we found 15 compounds with an inhibitory ability above 30% (FIG. 1F). […]

[6] = system: K562 cells; assay: Leukemia cell proliferation, K562; conditions: 72 hrs
Procedure: 2,000 cells from indicated NSLC cell lines were seeded into each well of 96-well plates. Cell viability was measured 3 days post-treatment using MTT assays following manufacturer's instruction. For cell viability assays with inhibitor treatment, 2,000 cells from indicated NSLC and HEK293 cell lines were seeded in 96-well plate. Inhibitor was added the next day at indicated concentration and cell viability was measured after 3-day treatment. For cell proliferation assays in THP1, K562 and HL60 cell lines, 1×10^6 cells from each indicated cell line were seeded in 12.5 cm2 cell culture flask and cells were counted by hemocytometer under microscope at indicated time to monitor cell proliferation. To test inhibitor effects on THP1, K562 and HL60 cell growth, 2×10^5 cells were seeded in 12.5 cm2 cell culture flask. Inhibitor was added the next day at indicated concentrations and cell number was counted after 3 days treatment. Three independent experiments were performed to generate error bars.

With `Cc1cc(NC(=O)c2cnn(C)c2C(=O)Nc2cc(C)nn2C2CCCC2)n(C2CCCC2)n1` [7Bi] as the compound, how does the OTUD7B protein levels ([1]; A549 cells) read?
The OTUD7B protein levels was “did not significantly affect OTUD7B protein levels”.

And the OTUD7B protein levels ([1]; HEK293 cells)?
Its OTUD7B protein levels is “did not significantly affect OTUD7B protein levels”.

What about the IC50 [2] of the same compound?
The IC50 was about 2500 nM.

What about the “downregulation of Akt-pS473 signals by purified 7Bi” value ([3]; HPLC purified 7Bi (~99% purity) compared with 90% purity) of the same compound?
Its value is “retained its ability”.

And the “suppression of Akt-pS473” value ([3]; indicated doses, 16 hrs)?
The value was “efficiently suppressed Akt-pS473”.

And the “GβL binding with mTORC2 components (Sin1, Rictor, mTOR)” value [4]?
The value was “attenuated GβL binding with mTORC2 components”.

And the “suppressing Akt-pS473 signal in at least 3 out of 4 NSCLC lines tested” value ([5]; A549, H358, H520, H1299, 10 uM for 16 hrs, dose- and time-dependent)?
Its value is “showed effects in suppressing Akt-pS473 signal”.

And the IC50 ([5]; NSCLC cells, read-out: IC50 values to inhibit Akt-pS473 signals)?
The IC50 was 1000 to 10000 nM.

And the cell proliferation [6]?
The cell proliferation was “reduced proliferation”.
